Experimental data: patent US20230058961A1, “SUBSTITUTED HETEROCYCLICS WITH THERAPEUTIC ACTIVITY IN HIV” (New York Blood Center, Inc., priority 2019, published 2023)

How the values were obtained:
[1] = tested on: TZM-bl cells; conditions: human, 3 days
Experimental: (§1) The anti-HIV-1 activity was assessed in a single-cycle assay by infecting TZM-bl indicator cells with the pseudovirus HIV-1 HXB2 according to established procedures (F. Curreli, Y. D. Kwon, D. S. Belov, R. R. Ramesh, A. V. Kurkin, A. Altieri, P. D. Kwong, A. K. Debnath, J Med Chem 2017, 60, 3124-3153; which is incorporated herein by reference for all that it teaches about the conduct and interpretation of the assay).
(§2) The cytotoxicity of the small polycyclic molecules in TZM-bl cells was determined by using the colorimetric method CellTiter 96® AQueous One Solution Cell Proliferation Assay (MTS) (Promega) following the manufacturer's instructions. Briefly, TZM-bl cells were platted in a 96-well tissue culture plate at 1×10^4/well and cultured at 37° C. Following overnight incubation, the cells were incubated with 100 μl of the compounds at graded concentrations and cultured for 3 days. The MTS reagent was added to the cells and incubated for 4 h at 37° C. The absorbance was recorded at 490 nm.

[2] = tested on: pseudovirus HIV-1 HXB2; experiment: organism not typed; assay type: cell-based; conditions: anti-HIV-1 activity, single-cycle assay, TZM-bl cells, pseudovirus HIV-1 HXB2, read-out: IC50
[3] = in vitro; conditions: human, CC50
Experimental: as §1, §2

[4] = Human immunodeficiency virus 1, HXB2, TZM-bl

Row | Structure (SMILES) | CC50 [1] [µM] | IC50 [2] [µM] | IC50 [2, 4] [µM] | CC50 at 3 days [3] [µM]
1 | Cc1cc(-c2ccc(Cl)cn2)[nH]c1C(=O)NC(CN)c1ncc(CO)s1 (stereo not drawn) [Compound 4, N-(2-Amino-1-(5-(hydroxymethyl)thiazol-2-yl)ethyl)-5-(5-chloropyridin-2-yl)-3-methyl-1H-pyrrole-2-carboxamide] | 95 ± 3.6 | 2.4 ± 0.2 | – | –
2 | NCC(NC(=O)c1ccc(-c2ccc(C(F)(F)F)cn2)[nH]1)c1ncc(CO)s1 (stereo not drawn) [Compound 6, N-(2-Amino-1-(5-(hydroxymethyl)thiazol-2-yl)ethyl)-5-(5-(trifluoromethyl)pyridin-2-yl)-1H-pyrrole-2-carboxamide] | > 122 | 1.2 | – | –
3 | CC(C)(N)C(NC(=O)c1ccc(-c2ccc(C(F)(F)F)cn2)[nH]1)c1ncc(CO)s1 (stereo not drawn) [Compound 10, N-(2-Amino-1-(5-(hydroxymethyl)thiazol-2-yl)-2-methylpropyl)-5-(5-(trifluoromethyl)pyridin-2-yl)-1H-pyrrole-2-carboxamide] | 41 ± 2.5 | 0.5 | – | –
4 | Cc1cc(-c2ccc(C(F)(F)F)cn2)[nH]c1C(=O)NC(c1ncc(CO)s1)C(C)(C)N (stereo not drawn) [Compound 12, N-(2-Amino-1-(5-(hydroxymethyl)thiazol-2-yl)-2-methylpropyl)-3-methyl-5-(5-(trifluoro-methyl)pyridin-2-yl)-1H-pyrrole-2-carboxamide] | 37.5 ± 2.2 | – | – | –
5 | NCC(NC(=O)c1ccc(-c2ccc(C(F)(F)F)cn2)[nH]1)c1ncc(C(O)CO)s1 (stereo not drawn) [Compound 14, N-(2-Amino-1-(5-(1,2-dihydroxyethyl)thiazol-2-yl)ethyl)-5-(5-(trifluoromethyl)pyridin-2-yl)-1H-pyrrole-2-carboxamide] | > 113 | 5.9 ± 0.6 | – | –
6 | NCC(NC(=O)c1ccc(-c2ccc(Cl)cn2)[nH]1)c1nc(CO)cs1 (stereo not drawn) [Compound 16, N-(2-Amino-1-(4-(hydroxymethyl)thiazol-2-yl)ethyl)-5-(5-chloropyridin-2-yl)-1H-pyrrole-2-carboxamide] | > 132 | 1.7 ± 0.3 | – | –
7 | NCC(NC(=O)c1ccc(-c2ccc(F)cn2)[nH]1)c1nc(CO)cs1 (stereo not drawn) [Compound 18, N-(2-Amino-1-(4-(hydroxymethyl)thiazol-2-yl)ethyl)-5-(5-fluoropyridin-2-yl)-1H-pyrrole-2-carboxamide] | > 138 | > 11 | – | –
8 | Cc1ccc(-c2ccc(C(=O)NC(CN)c3nc(CO)cs3)[nH]2)nc1 (stereo not drawn) [Compound 20, N-(2-Amino-1-(4-(hydroxymethyl)thiazol-2-yl)ethyl)-5-(5-methylpyridin-2-yl)-1H-pyrrole-2-carboxamide] | > 140 | > 11 | > 10 | –
9 | NCC(NC(=O)c1ccc(-c2ccc(C(F)(F)F)cn2)[nH]1)c1nc(CO)cs1 (stereo not drawn) [Compound 22, N-(2-Amino-1-(4-(hydroxymethyl)thiazol-2-yl)ethyl)-5-(5-(trifluoromethyl)pyridin-2-yl)-1H-pyrrole-2-carboxamide] | 124 ± 7 | – | – | –
10 | CC(C)(N)C(NC(=O)c1ccc(-c2ccc(C(F)(F)F)cn2)[nH]1)c1nc(CO)cs1 (stereo not drawn) [Compound 24, N-(2-Amino-1-(4-(hydroxymethyl)thiazol-2-yl)-2-methylpropyl)-5-(5-(trifluoromethyl)pyridin-2-yl)-1H-pyrrole-2-carboxamide] | 59 ± 10 | 0.58 | – | –
11 | NCC(NC(=O)c1ccc(-c2ccc(C(F)(F)F)cn2)[nH]1)c1nc(CCO)cs1 (stereo not drawn) [Compound 26, N-(2-Amino-1-(4-(2-hydroxyethyl)thiazol-2-yl)ethyl)-5-(5-(trifluoromethyl)pyridin-2-yl)-1H-pyrrole-2-carboxamide] | 91 ± 3.6 | 0.76 | – | –
12 | NCC(NC(=O)c1ccc(-c2ccc(C(F)(F)F)cn2)[nH]1)c1nc(CCCO)cs1 (stereo not drawn) [Compound 28, N-(2-Amino-1-(4-(3-hydroxypropyl)thiazol-2-yl)ethyl)-5-(5-(trifluoromethyl)pyridin-2-yl)-1H-pyrrole-2-carboxamide] | 81.2 ± 1.3 | 0.89 ± 0.12 | – | –
13 | NCC(NC(=O)c1ccc(-c2ccc(C(F)(F)F)cn2)[nH]1)c1nc(C(O)CO)cs1 (stereo not drawn) [Compound 30, N-(2-Amino-1-(4-(1,2-dihydroxyethyl)thiazol-2-yl)ethyl)-5-(5-(trifluoromethyl)pyridin-2-yl)-1H-pyrrole-2-carboxamide] | > 113 | 3.8 ± 0.2 | – | –
14 | NCC(NC(=O)c1ccc(-c2ccc(C(F)(F)F)cn2)[nH]1)c1nc(CO)c(CO)s1 (stereo not drawn) [Compound 36, N-(2-Amino-1-(4,5-bis(hydroxymethyl)thiazol-2-yl)ethyl)-5-(5-(trifluoromethyl)pyridin-2-yl)-1H-pyrrole-2-carboxamide] | > 113 | 13 | – | –
15 | NCC(NC(=O)c1ccc(-c2ccc(C(F)(F)F)cn2)[nH]1)c1nccs1 (stereo not drawn) [Compound 38, N-(2-Amino-1-(thiazol-2-yl)ethyl)-5-(5-(trifluoromethyl)pyridin-2-yl)-1H-pyrrole-2-carboxamide] | 93.6 ± 1.5 | 1.2 ± 0.03 | – | –
16 | NCC(NC(=O)c1ccc(-c2ccc(Cl)nc2)[nH]1)c1nc(CO)cs1 (stereo not drawn) [Compound 40, N-(2-Amino-1-(4-(hydroxymethyl)thiazol-2-yl)ethyl)-5-(6-chloropyridin-3-yl)-1H-pyrrole-2-carboxamide] | > 132 | > 11 | – | –
17 | NCC(NC(=O)c1ccc(-c2ccc(C(F)(F)F)nc2)[nH]1)c1nc(CO)cs1 (stereo not drawn) [Compound 42, N-(2-Amino-1-(4-(hydroxymethyl)thiazol-2-yl)ethyl)-5-(6-(trifluoromethyl)pyridin-3-yl)-1H-pyrrole-2-carboxamide] | > 122 | 11.9 ± 1.9 | – | –
18 | NCC(NC(=O)c1ccc(-c2ccc(C(F)(F)F)nn2)[nH]1)c1nc(CO)cs1 (stereo not drawn) [Compound 44, N-(2-Amino-1-(4-(hydroxymethyl)thiazol-2-yl)ethyl)-5-(6-(trifluoromethyl)pyridazin-3-yl)-1H-pyrrole-2-carboxamide] | > 73 | > 12 | – | –
19 | NCC(NC(=O)c1ccc(-c2ncc(Cl)cn2)[nH]1)c1nc(CO)cs1 (stereo not drawn) [Compound 46, N-(2-Amino-1-(4-(hydroxymethyl)thiazol-2-yl)ethyl)-5-(5-chloropyrimidin-2-yl)-1H-pyrrole-2-carboxamide] | > 66 | > 15.8 | – | –
20 | COc1cc(-c2ccc(C(=O)NC(CN)c3nc(CO)cs3)[nH]2)ccn1 (stereo not drawn) [Compound 48, N-(2-Amino-1-(4-(hydroxymethyl)thiazol-2-yl)ethyl)-5-(2-methoxypyridin-4-yl)-1H-pyrrole-2-carboxamide] | > 133 | > 11 | – | –
21 | NCC(NC(=O)c1ccc(-c2ccc(C(F)(F)F)cn2)[nH]1)c1cnc(CO)s1 (stereo not drawn) [Compound 58, N-(2-Amino-1-(2-(hydroxymethyl)thiazol-5-yl)ethyl)-5-(5-(trifluoromethyl)pyridin-2-yl)-1H-pyrrole-2-carboxamide] | > 122 | 2.1 ± 0.2 | – | –
22 | NCC(NC(=O)c1ccc(-c2ccc(Cl)cn2)[nH]1)c1cnc(CO)s1 (stereo not drawn) [Compound 60, N-(2-Amino-1-(2-(hydroxymethyl)thiazol-5-yl)ethyl)-5-(5-chloropyridin-2-yl)-1H-pyrrole-2-carboxamide] | > 106 | 3.6 ± 0.4 | – | –
23 | NCC(NC(=O)c1ccc(-c2ccc(C(F)(F)F)cn2)[nH]1)c1csc(C(=O)NCCO)n1 (stereo not drawn) [Compound 69, 4-(2-Amino-1-(5-(5-(trifluoromethyl)pyridin-2-yl)-1H-pyrrole-2-carboxamido)ethyl)-N-(2-hydroxyethyl)thiazole-2-carboxamide] | – | – | > 21.3 | > 107
